ChEMBL document CHEMBL5365482, “Rational Design of Sulfonyl-γ-AApeptides as Highly Potent HIV-1 Fusion Inhibitors with Broad-Spectrum Activity” (J Med Chem, 2023)

Columns and labels:
[1] = system: Human immunodeficiency virus 1; experiment: Antiviral activity against HIV1 IIIB infected in human MT2 cells assessed as inhibition of viral growth incubated for 30 mins by ELISA assay; assay type: functional, organism-based; conditions: Human immunodeficiency virus 1, IIIB, MT2, 0.5 h
[2] = Cytotoxicity against human MT2 cells assessed as inhibition of cell growth measured after 3 days by CCK8 assay; assay type: toxicity, cell-based; conditions: time 3 day
[3] = Selectivity index, ratio of CC50 for human MT2 cells to IC50 for HIV1 IIIB infected in human MT2 cells; assay type: toxicity, cell-based; conditions: read-out: Ratio CC50/IC50
[4] = Stability of compound in ammonium bicarbonate buffer at pH 7.8 at 0.1 mg/ml incubated for 24 hrs under at 37 degreeC in presence of pronase by HPLC analysis; assay type: physicochemical; conditions: pH 7.8, 24 h
[5] = Apparent permeability of the compound across gastrointestinal tract in PBS buffer at pH 5 at 50 uM by PAMPA analysis; assay type: ADME, tissue-based; conditions: for Papp at 50 µM: PAMPA, pH 5
[6] = Apparent permeability of the compound across gastrointestinal tract in PBS buffer at pH 6.2 at 50 uM by PAMPA analysis; assay type: ADME, tissue-based; conditions: for Papp at 50 µM: PAMPA, pH 6.2
[7] = system: Human immunodeficiency virus 1; experiment: Antiviral activity against HIV1 Q259env.w6 clinical isolate infected in human TZM-bl cells assessed as inhibition of viral growth incubated for 48 hrs by luciferase based analysis; assay type: functional, organism-based; conditions: Human immunodeficiency virus 1, Q259env.w6, TZM-bl
[8] = Apparent permeability of the compound across gastrointestinal tract in PBS buffer at pH 7.4 at 50 uM by PAMPA analysis; assay type: ADME, tissue-based
[9] = Apparent permeability of the compound across blood brain barrier in PBS buffer at pH 7.4 at 15 uM by PAMPA analysis; assay type: ADME, tissue-based
[10] = system: Human immunodeficiency virus 1; experiment: Antiviral activity against HIV1 QA013.701.ENV.M12 clinical isolate infected in human TZM-bl cells assessed as inhibition of viral growth incubated for 48 hrs by luciferase based analysis; assay type: functional, organism-based; conditions: Human immunodeficiency virus 1, QA013.701.ENV.M12, TZM-bl
[11] = system: Human immunodeficiency virus 1; experiment: Antiviral activity against HIV1 CRF02_AG Clone 33 clinical isolate infected in human TZM-bl cells assessed as inhibition of viral growth incubated for 48 hrs by luciferase based analysis; assay type: functional, organism-based; conditions: Human immunodeficiency virus 1, CRF02_AG Clone 33, TZM-bl
[12] = system: Human immunodeficiency virus 1; experiment: Antiviral activity against HIV1 X4 […] MN/H9 (84US_MNp) clinical isolate infected in human MT2 cells assessed as inhibition of viral growth incubated for 30 mins by ELISA assay; assay type: functional, organism-based; conditions: Human immunodeficiency virus 1, X4 […] MN/H9 (84US_MNp), MT2, 0.5 h
[13] = biological target: T1, Envelope glycoprotein gp160 (Human immunodeficiency virus 1, UniProt Q72502); experiment: Binding affinity to HIV1 GP41 using GP41 NHR derived N36 peptide assessed as binding constant by fluorescence polarization assay
T1 sequence (Q72502 whole entry): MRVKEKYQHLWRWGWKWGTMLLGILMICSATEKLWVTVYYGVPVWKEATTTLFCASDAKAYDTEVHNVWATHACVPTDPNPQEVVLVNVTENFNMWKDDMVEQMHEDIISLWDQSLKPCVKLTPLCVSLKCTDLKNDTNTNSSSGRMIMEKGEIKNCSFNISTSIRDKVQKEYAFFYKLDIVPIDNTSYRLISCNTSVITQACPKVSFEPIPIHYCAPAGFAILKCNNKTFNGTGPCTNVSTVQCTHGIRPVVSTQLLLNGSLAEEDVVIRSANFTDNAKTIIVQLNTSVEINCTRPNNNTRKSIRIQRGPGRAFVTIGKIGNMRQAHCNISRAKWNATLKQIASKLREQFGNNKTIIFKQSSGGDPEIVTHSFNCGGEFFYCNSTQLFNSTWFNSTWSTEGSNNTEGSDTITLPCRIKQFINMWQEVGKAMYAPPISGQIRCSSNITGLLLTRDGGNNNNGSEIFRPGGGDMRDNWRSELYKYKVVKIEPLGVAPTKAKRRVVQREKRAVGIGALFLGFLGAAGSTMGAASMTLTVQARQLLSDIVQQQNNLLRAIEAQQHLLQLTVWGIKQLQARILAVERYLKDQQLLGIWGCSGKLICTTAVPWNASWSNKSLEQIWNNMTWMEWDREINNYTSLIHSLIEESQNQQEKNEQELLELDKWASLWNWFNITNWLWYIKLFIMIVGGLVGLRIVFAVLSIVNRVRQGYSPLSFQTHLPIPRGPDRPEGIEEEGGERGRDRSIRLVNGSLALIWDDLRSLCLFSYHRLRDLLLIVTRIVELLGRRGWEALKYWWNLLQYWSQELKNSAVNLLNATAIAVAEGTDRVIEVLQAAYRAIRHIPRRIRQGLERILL

[14] = biological target: T1, Envelope glycoprotein gp160; experiment: Binding affinity to HIV1 GP41 using GP41 NHR derived N36 peptide assessed as binding constant in presence of C34 by fluorescence polarization assay
[15] = system: Human immunodeficiency virus 1; experiment: Antiviral activity against HIV1 QD435.100MENV.E1 clinical isolate infected in human TZM-bl cells assessed as inhibition of viral growth incubated for 48 hrs by luciferase based analysis; assay type: functional, organism-based; conditions: Human immunodeficiency virus 1, QD435.100MENV.E1, TZM-bl
[16] = system: Human immunodeficiency virus 1; experiment: Antiviral activity against HIV1 R5 […] US4/GS 007 (91US_4) clinical isolate infected in human CEMx174 5.25M7 cells assessed as inhibition of viral growth incubated for 30 mins by ELISA assay; assay type: functional, organism-based; conditions: Human immunodeficiency virus 1, R5 […] US4/GS 007 (91US_4), CEMx174 5.25M7, 0.5 h
[17] = system: Human immunodeficiency virus 1; experiment: Antiviral activity against HIV1 CRF02_AG Clone 278 clinical isolate infected in human TZM-bl cells assessed as inhibition of viral growth incubated for 48 hrs by luciferase based analysis; assay type: functional, organism-based; conditions: Human immunodeficiency virus 1, CRF02_AG Clone 278, TZM-bl
[18] = Apparent permeability of the compound across blood brain barrier in PBS buffer at pH 7.4 at 25 uM by PAMPA analysis; assay type: ADME, tissue-based
[19] = Apparent permeability of the compound across gastrointestinal tract in PBS buffer at pH 6.2 at 200 uM by PAMPA analysis; assay type: ADME, tissue-based
[20] = Apparent permeability of the compound across gastrointestinal tract in PBS buffer at pH 5 at 200 uM by PAMPA analysis; assay type: ADME, tissue-based
[21] = Apparent permeability of the compound across gastrointestinal tract in PBS buffer at pH 7.4 at 200 uM by PAMPA analysis; assay type: ADME, tissue-based
[22] = in vitro; conditions: PAMPA, pH 7.4
Description: Apparent permeability of the compound across blood brain barrier in PBS buffer at pH 7.4 at 250 uM by PAMPA analysis

| Compound | IC50 [1] | CC50 at 72 h [2] | selectivity ratio [3] | IC50 [7] | Papp at 50 µM [8] | IC50 [10] | IC50 [11] | IC50 [12] | IC50 [15] | IC50 [16] | IC50 [17] | further results |
| --- | --- | --- | --- | --- | --- | --- | --- | --- | --- | --- | --- | --- |
| CC[C@@H](C)[C@@H](CN(CC(=O)N[C@@H](CCC(=O)O)CN(CC(=O)N[C@@H](CC(C)C)CN(CC(N)=O)S(=O)(=O)CC(C)C)S(=O)(=O)c1ccc(C(=O)O)cc1)S(=O)(=O)CC(C)C)NC(=O)CN(C[C@H](CCCCN)NC(=O)CN(C[C@H](Cc1ccc(O)cc1)NC(=O)CN(C[C@H](CCC(=O)O)NC(=O)CN(C[C@@H](NC(=O)CN(C[C@H](CCCCN)NC(=O)CN(C[C@H](Cc1c[nH]c2ccccc12)NC(=O)CN(C[C@H](CCC(=O)O)NC(=O)CN(C[C@H](Cc1c[nH]c2ccccc12)NC(=O)CN(C[C@H](CCSC)NC(C)=O)S(=O)(=O)c1ccc(OC)cc1)S(=O)(=O)CC(C)C)S(=O)(=O)c1ccc(C(=O)O)cc1)S(=O)(=O)CC(C)C)S(=O)(=O)CCN)[C@H](C)CC)S(=O)(=O)CC(C)C)S(=O)(=O)c1ccc(C(=O)O)cc1)S(=O)(=O)CC(C)C)S(=O)(=O)CCN | 4000 nM | > 40000 nM | > 10 |  |  |  |  |  |  |  |  | Stability [4]: Stable |
| CCCCCCCCCCCCCCCCCC(=O)NCCCC[C@H](NC(=O)CN(C[C@H](CC(C)C)NC(=O)CN(C[C@H](CCC(=O)O)NC(=O)CN(C[C@@H](NC(=O)CN(C[C@H](CCCCN)NC(=O)CN(C[C@H](Cc1ccc(O)cc1)NC(=O)CN(C[C@H](CCC(=O)O)NC(=O)CN(C[C@@H](NC(=O)CN(C[C@H](CCCCN)NC(=O)CN(C[C@H](Cc1c[nH]c2ccccc12)NC(=O)CN(C[C@H](CCC(=O)O)NC(=O)CN(C[C@H](Cc1c[nH]c2ccccc12)NC(=O)CN(C[C@H](CCSC)NC(C)=O)S(=O)(=O)c1ccc(OC)cc1)S(=O)(=O)CC(C)C)S(=O)(=O)c1ccc(C(=O)O)cc1)S(=O)(=O)CC(C)C)S(=O)(=O)CCN)[C@H](C)CC)S(=O)(=O)CC(C)C)S(=O)(=O)c1ccc(C(=O)O)cc1)S(=O)(=O)CC(C)C)S(=O)(=O)CCN)[C@H](C)CC)S(=O)(=O)CC(C)C)S(=O)(=O)c1ccc(C(=O)O)cc1)S(=O)(=O)CC(C)C)C(N)=O | 180 nM | 19300 nM | 106 | 84.4 nM | 520 ×10⁻⁶ cm/s | 61 nM | 64.7 nM | 940 nM | 85.3 nM | 88.8 nM | 60.4 nM | Papp at 50 µM [5]: 610 ×10⁻⁶ cm/s; Papp at 50 µM [6]: 522 ×10⁻⁶ cm/s; Papp at 15 µM [9]: 256 ×10⁻⁶ cm/s; Kd [13]: 670 nM; Kd [14]: > 46000 nM |
| CC[C@@H](C)[C@@H](CN(CC(=O)N[C@@H](CCC(=O)O)CN(CC(=O)N[C@@H](CC(C)C)CN(CC(N)=O)S(=O)(=O)CC(C)C)S(=O)(=O)c1ccc(C(=O)O)cc1)S(=O)(=O)CC(C)C)NC(=O)CN(C[C@H](CCCCN)NC(=O)CN(C[C@H](Cc1ccc(O)cc1)NC(=O)CN(C[C@H](CCC(=O)O)NC(=O)CN(C[C@@H](NC(=O)CN(C[C@H](CCCCN)NC(=O)CN(C[C@H](Cc1c[nH]c2ccccc12)NC(=O)CN(C[C@H](CCC(=O)O)NC(=O)CN(C[C@H](Cc1c[nH]c2ccccc12)NC(=O)CN(C[C@H](CCSC)NC(C)=O)S(=O)(=O)CC(C)C)S(=O)(=O)CC(C)C)S(=O)(=O)c1ccc(C(=O)O)cc1)S(=O)(=O)CC(C)C)S(=O)(=O)CCN)[C@H](C)CC)S(=O)(=O)CC(C)C)S(=O)(=O)c1ccc(C(=O)O)cc1)S(=O)(=O)CC(C)C)S(=O)(=O)CCN | 30000 nM | > 40000 nM | > 1.3 |  |  |  |  |  |  |  |  | Stability [4]: Stable |
| CCCCCCCCCCCCCCCCCC(=O)NCCCC[C@H](NC(=O)CN(C[C@H](CC(C)C)NC(=O)CN(C[C@H](CCC(=O)O)NC(=O)CN(C[C@@H](NC(=O)CN(C[C@H](CCCCN)NC(=O)CN(C[C@H](Cc1ccc(O)cc1)NC(=O)CN(C[C@H](CCC(=O)O)NC(=O)CN(C[C@@H](NC(=O)CN(C[C@H](CCCCN)NC(=O)CN(C[C@H](Cc1c[nH]c2ccccc12)NC(=O)CN(C[C@H](CCC(=O)O)NC(=O)CN(C[C@H](Cc1c[nH]c2ccccc12)NC(=O)CN(C[C@H](CCSC)NC(C)=O)S(=O)(=O)CC(C)C)S(=O)(=O)CC(C)C)S(=O)(=O)c1ccc(C(=O)O)cc1)S(=O)(=O)CC(C)C)S(=O)(=O)CCN)[C@H](C)CC)S(=O)(=O)CC(C)C)S(=O)(=O)c1ccc(C(=O)O)cc1)S(=O)(=O)CC(C)C)S(=O)(=O)CCN)[C@H](C)CC)S(=O)(=O)CC(C)C)S(=O)(=O)c1ccc(C(=O)O)cc1)S(=O)(=O)CC(C)C)C(N)=O | 980 nM | > 40000 nM | > 41 | 154 nM | 390 ×10⁻⁶ cm/s | 46.7 nM | 124 nM | 81.3 nM | 84.9 nM | 87.8 nM | 89 nM | Papp at 50 µM [5]: 602 ×10⁻⁶ cm/s; Papp at 50 µM [6]: 617 ×10⁻⁶ cm/s; Papp at 25 µM [18]: 234 ×10⁻⁶ cm/s |
| Cc1cc(=O)n(-c2ccccc2)n1C [ANTIPYRINE] |  |  |  |  |  |  |  |  |  |  |  | Papp at 200 µM [19]: < 1 ×10⁻⁶ cm/s; Papp at 200 µM [20]: < 1 ×10⁻⁶ cm/s |
| NC(=O)N1c2ccccc2C=Cc2ccccc21 [CARBAMAZEPINE] |  |  |  |  | 152 ×10⁻⁶ cm/s |  |  |  |  |  |  | Papp ([5]; pampa, pH 5, 50 µM): 134.41 10^-6 cm/s; Papp ([6]; pampa, pH 6.2, 50 µM): 141.28 10^-6 cm/s; Papp at 200 µM [21]: < 1 ×10⁻⁶ cm/s |
| Cn1c(=O)c2[nH]cnc2n(C)c1=O.O [THEOPHYLLINE] |  |  |  |  |  |  |  |  |  |  |  | Papp at 250 µM [22]: < 10 ×10⁻⁶ cm/s |
| enfuvirtide |  |  |  | 50.8 nM |  | 6.5 nM | 28.4 nM | 3 nM | 72 nM | 15.7 nM | 28.4 nM |  |
